Laboratory results as given in patent US12415799B2, “Indazole-fused cyclic compound” (Zhejiang Yangli Pharmaceutical Technology Co., Ltd., priority 2020, dated 2025).
Read-outs that look alike come from different tables or passages of the source.

Experiments:
CYP3A4 = CYP3A4 (Homo sapiens (Human), UniProt P08684); test: Cytochrome P450 isoenzyme inhibition, human liver microsomes; format: in vitro ADME
Method: (§1) Experimental purposes: To test the inhibitory effect of test compound on the activity of human liver microsomal cytochrome P450 isoenzymes (CYP1A2 and CYP3A4) (Corning, Co., Ltd.).
(§2) Experimental operation: Firstly, the test compound (10 mM) was subjected to gradient dilution to prepare a working solution (100×final concentration), and the concentration of the working solution was: 5, 1.5, 0.5, 0.15, 0.05, 0.015 and 0.005 mM, respectively, and the working solution of each positive inhibitor of P450 isoenzyme (CYP1A2 and CYP3A4) and its specific substrate mixture (5 in 1) were prepared; and then the human liver microsomes frozen in the −80° C. refrigerator were thawed on ice, and all the human liver microsomes were dissolved, diluted with PB, and a certain concentration of working solution (0.253 mg/mL) was prepared; 20 μL of substrate mixture was added to the reaction plate (20 μL of PB was added to the blank well), while 158 μL of human liver microsomal working solution was added to the reaction plate, and the reaction plate was placed on ice for later use; at this time, 2 μL of various concentrations of the test compound (N=1) and specific inhibitor (N=2) were added to the corresponding well, and the corresponding organic solvent was added to the non-inhibitor (test compound or positive inhibitor) group as a control group sample (a ratio of DMSO:MeOH in the test compound control sample was 1:1, a ratio of DMSO:MeOH in the positive control sample was 1:9); after pre-incubation in a water bath at 37° C. for 10 min, 20 μL of coenzyme factor (NADPH) solution was added to the reaction plate, and incubated in a water bath at 37° C. for 10 min; and 400 μL of cold acetonitrile solution (internal standard was 200 ng/mL tolbutamide and labetalol) was added to terminate the reaction; the reaction plate was placed on a shaker and shaked for 10 minutes; and then centrifuged at 4,000 rpm for 20 minutes; 200 μL of the supernatant was taken and added to 100 μL of water for sample dilution; finally the plate was sealed, shaked and shaked well, for LC/MS/MS detection.

CYP1A2 = CYP1A2 (Homo sapiens (Human), UniProt P05177); format: in vitro ADME; conditions: microsomes
Sequence of CYP1A2 (P05177 whole entry): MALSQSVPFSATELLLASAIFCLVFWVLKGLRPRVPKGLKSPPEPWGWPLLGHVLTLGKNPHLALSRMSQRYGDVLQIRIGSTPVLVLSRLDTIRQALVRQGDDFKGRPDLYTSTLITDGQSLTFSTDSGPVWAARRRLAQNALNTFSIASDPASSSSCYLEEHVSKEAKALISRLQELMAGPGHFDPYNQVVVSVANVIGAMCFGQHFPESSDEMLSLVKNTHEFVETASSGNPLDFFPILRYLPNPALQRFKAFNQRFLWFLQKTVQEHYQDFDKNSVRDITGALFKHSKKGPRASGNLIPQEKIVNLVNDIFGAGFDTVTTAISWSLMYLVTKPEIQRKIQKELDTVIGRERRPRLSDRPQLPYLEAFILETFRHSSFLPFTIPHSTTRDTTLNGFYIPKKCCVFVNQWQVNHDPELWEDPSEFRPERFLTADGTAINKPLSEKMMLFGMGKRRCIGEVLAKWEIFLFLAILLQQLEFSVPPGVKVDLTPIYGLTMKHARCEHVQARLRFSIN
Method: as §1, §2

MCF-7 cells = test: MCF-7 cell proliferation inhibition experiment; format: cell-based; conditions: Homo sapiens, MCF7, 144 h, 6 days incubation, CellTiter-Glo, read-out: Anti-cell proliferation activity of MCF-7
Method: (1) MCF-7 Cell Proliferation Inhibition Experiment:
(§3) EMEM culture medium was purchased from Wisent, and fetal bovine serum was purchased from Biosera, Promega CellTiter-Glo reagent. MCF-7 cell line was purchased from Cell Bank of Type Culture Collection of Chinese Academy of Sciences. Nivo5 multi-label analyzer (PerkinElmer).
MCF-7 cells were seeded in a white 384-well plate with 600 cells per well in every […] of the cell suspension. The cell plate was placed in a carbon dioxide incubator and cultured overnight.
The test compound was diluted to the 10th concentration with a multi-channel pipette, and the compound concentration was 1 mM, 400 μM, and 80 μM, and then diluted to the 10th concentration of 1 nM in turn, and a double-duplicate experiment was set-up. 47.5 μL of culture medium was added to the middle plate, then 2.5 μL of gradient dilution compound per well was transferred to the middle plate according to the corresponding position, and 5 μL of the mixture per well was mixed evenly and transferred to the cell plate. The cell plate was placed in a carbon dioxide incubator and cultured for 6 days.
After 6 days of co-incubation of the compound, the culture medium was removed by centrifugation, and 25 μL of Promega CellTiter-Glo reagent was added to each well of the cell plate, and incubated at room temperature for 10 minutes to stabilize the luminescence signal. PerkinElmer Nivo multi-marker analyzer reading was used. In the experiment, the reading of 2 μM positive reference compound H3B-6545(US20160347717A1) was used as a positive control to participate in data calculation.
The equation % Inhibition=((RFUCmpd−AVER(RFUNeg.ctrl))/((AVER(RFUPos.Ctrl)−AVER(RFUNeg.ctrl))×100% was used to convert the original data into inhibition rate, and the compound curve was fitted by log(inhibitor)vs. response-Variable slope of Graphpad Prism 5. The IC50 value was calculated by the software through the formula Y=Bottom+(Top−Bottom)/(1+10^((Log IC50−X)*HillSlope)).

ERα = ERα (Homo sapiens (Human), UniProt P03372); test: Degradation experiment of MCF-7 ERα (ELISA); format: cell-based; conditions: MCF-7 cell line, 4 hours incubation, total ERα ELISA; read-out: IC50 value of promoting ERα degradation
Sequence of ERα (P03372 whole entry): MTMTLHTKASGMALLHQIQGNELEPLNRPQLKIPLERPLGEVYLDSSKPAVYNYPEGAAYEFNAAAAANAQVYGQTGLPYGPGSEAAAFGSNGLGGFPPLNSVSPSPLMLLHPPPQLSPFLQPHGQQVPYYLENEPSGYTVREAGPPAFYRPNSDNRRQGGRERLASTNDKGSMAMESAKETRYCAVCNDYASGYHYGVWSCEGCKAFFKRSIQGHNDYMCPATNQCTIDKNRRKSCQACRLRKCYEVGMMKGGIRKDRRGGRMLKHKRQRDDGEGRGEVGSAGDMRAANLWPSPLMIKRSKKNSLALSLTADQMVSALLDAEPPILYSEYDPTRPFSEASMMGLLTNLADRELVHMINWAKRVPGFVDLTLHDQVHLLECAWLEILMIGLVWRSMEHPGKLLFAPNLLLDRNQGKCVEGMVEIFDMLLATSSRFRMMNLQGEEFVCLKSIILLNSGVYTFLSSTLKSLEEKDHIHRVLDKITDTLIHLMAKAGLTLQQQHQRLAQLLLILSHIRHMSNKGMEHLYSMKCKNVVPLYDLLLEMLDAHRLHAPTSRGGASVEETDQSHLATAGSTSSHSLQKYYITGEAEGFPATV
Text: (2) Degradation Experiment of MCF-7 ERα Experimental Materials:
as §3, with “Phenol red-free MEM” for “EMEM”, “Wisent,” for “Wisent, and”, “and Human Total ERα/NR3A1 ELISA kit was purchased from R&D.” for “Promega CellTiter-Glo reagent.”
MCF-7 cells were resuspended in culture medium (phenol red-free MEM+5% charcoal/dextran-treated fetal bovine serum+1% penicillin-streptomycin double antibody solution), and seeded in a clear 96-well cell culture plate with 80 μL per well containing 20,000 cells, and the cell culture plate was incubated overnight in a carbon dioxide incubator;
ELISA plate was coated with strips, human total estrogen receptor a capture antibody was diluted with 1×PBS with a final concentration of 1 μg/mL, and 100 μL of mixture was added to each well, and incubated overnight at 25° C.
Cell administration: The test compound was diluted to the 8th concentration with a multi-channel pipette, and the compound concentration was 20 μM and 4 μM, and then diluted to the 8th concentration of 0.256 nM in turn, and a double-duplicate experiment was set-up. 78 μL of culture medium was added to the middle plate, then 2 μL of gradient dilution compound per well was transferred to the middle plate according to the corresponding position, and 20 μL of the mixture per well was mixed evenly and transferred to the cell plate, and the final concentration of DMSO was 0.5%, and the mixture was incubated at 37° C. for 4 hours;
preparation of standard curve solution: 110 ng/mL of standard curve storage solution was 6-fold diluted with buffer (1×PBS containing 1 mM EDTA, 0.5% Triton X-100, pH 7.2 to 7.4) to obtain a solution with a concentration of 18.3 ng/mL, and then 91.5-fold diluted with buffer (1×PBS containing 1 mM EDTA, 0.5% Triton X-100, 1 M urea, pH 7.2 to 7.4) to obtain a solution with a concentration of 0.2 ng/mL, and 8-point gradient dilution was performed using buffer (1×PBS containing 1 mM EDTA, 0.5% Triton X-100, 1 M urea, pH 7.2 to 7.4) with a final concentration of […].
1×PBS was pre-cooled, and after the incubation of the compound, the supernatant was removed, and then the plate was washed with 250 μL of pre-cooled 1×PBS per well, then 30 µL of cell lysate per well (1×PBS containing 1 mM EDTA, 0.5% Triton X-100, 6 M urea, 1 mM active sodium orthovanadate, 2.5 mM sodium pyrophosphate, lx protease inhibitor, pH 7.2 to 7.4) was added, and lysed on ice for 15 minutes;
after cell was lysed in the cell plate, the cell lysate was 6-fold diluted with 150 μL of buffer (1×PBS containing 1 mM EDTA, 0.5% Triton X-100, pH 7.2 to 7.4) per well, and the mixture was mixed evenly by blowing with a multi-channel pipette, and 100 μL of solution per well was transferred to the ELISA plate;
the human total estrogen receptor a detection antibody stock solution (14.4 μg/mL) was 36-fold diluted with buffer (1×PBS containing 1% bovine serum albumin), and the final concentration of the detection antibody was 400 ng/mL, and 100 μL of the solution per well was transferred to the ELISA plate and incubated at 25° C. for 2 hours;
Data analysis: A, B, C and D in the four-parameter equation y=(A−D)/[1+(x/C)^B]+D were calculated according to the original data of the standard curve, wherein, y was the original OD450 value, x was the concentration of the corresponding point of the standard curve. According to the four-parameter equation and the OD450 reading of the original data of the sample, the concentration of ERα at the corresponding point was calculated. The equation (Sample−Min)/(Max−Min)×100% was used to convert the original data into inhibition rate, and the IC50 value could be obtained by curve fitting with four parameters (obtained by “log (inhibitor) vs. response—variable slope” mode in GraphPad Prism).
Max wells: Positive control wells reading at 100 nM Fulvestrant-treated cell wells […]

[1] = in vivo, cited from earlier work
breast cancer = conditions: intramuscular injection; cited from earlier work
rat uterus = test: Uterine wet weight inhibition experiment in rat cubs; format: in vivo; conditions: 18-day-old female rat pups, oral, three consecutive days; compounds 25 mg/kg, Ethinylestradiol 0.1 mg/kg
Method: The purpose of this experiment was to evaluate the effect of the compound of the present disclosure on uterine growth inhibition in 18 to 21-day-old female rat pups (provided by Beijing Vital River Laboratory Animal Technology Co., Ltd.). In this experiment, 18-day-old female rat pups were orally administered the compound of the present disclosure at a dose of 25 mg/kg for three consecutive days, and the control group was orally administered 0.1 mg/kg of Ethinylestradiol for three consecutive days, and the blank group was not given any drug except the corresponding solvent. Three days after the administration, the rats were sacrificed, and the weight of the rat uterus was weighed to observe the effect of the test drug on the growth inhibition of the rat uterus. Inhibition rate=100×[(VehicleEE−Cpd)/(VehicleEE−Vehicle)], VehicleEE was the wet weight of the rat uterus in the control group (administered 0.1 mg/kg of Ethinylestradiol orally); Cpd was the wet weight of the rat uterus in administration group; Vehicle was the wet weight of the rat uterus in the blank group.

Sequence of CYP3A4 (P08684 whole entry): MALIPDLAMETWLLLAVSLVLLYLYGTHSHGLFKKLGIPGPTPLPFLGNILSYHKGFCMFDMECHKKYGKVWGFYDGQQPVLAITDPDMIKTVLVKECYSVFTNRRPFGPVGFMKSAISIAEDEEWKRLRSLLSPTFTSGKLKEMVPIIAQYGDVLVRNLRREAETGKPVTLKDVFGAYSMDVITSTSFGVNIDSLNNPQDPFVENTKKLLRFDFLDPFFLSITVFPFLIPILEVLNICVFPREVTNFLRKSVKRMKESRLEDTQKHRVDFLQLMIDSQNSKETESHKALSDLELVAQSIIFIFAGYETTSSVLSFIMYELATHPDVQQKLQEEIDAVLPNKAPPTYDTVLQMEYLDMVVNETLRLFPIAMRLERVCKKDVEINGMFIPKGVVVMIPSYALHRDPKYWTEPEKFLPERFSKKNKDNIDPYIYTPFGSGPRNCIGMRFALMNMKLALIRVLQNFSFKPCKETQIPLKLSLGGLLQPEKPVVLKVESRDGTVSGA

SMILES: FCCCN1CC(Nc2cnc(C3=C(CC(F)(F)F)CCCc4c3ccc3[nH]nc(F)c43)cn2)C1 [Compound 8]
- IC50 (CYP3A4): 42100 nM
- IC50 (CYP1A2): > 50000 nM
- IC50 (MCF-7 cells): 0.7 nM
- DC50 (ERα): 0.37 nM

SMILES: FCCCN1CC(Nc2cnc(C3=C(CC(F)(F)F)CCCc4c3ccc3[nH]ncc43)cn2)C1 [Compound 5]
- IC50 (MCF-7 cells): 0.19 nM
- DC50 (ERα): 0.017 nM

SMILES: C[C@]12CC[C@@H]3c4ccc(O)cc4C[C@@H](CCCCCCCCC[S+]([O-])CCCC(F)(F)C(F)(F)F)[C@H]3[C@@H]1CC[C@@H]2O (some centres unmarked) [fulvestrant, Fulvestrant]
- oral bioavailability ([1]; po): close to zero
- blood clearance rate [1]: high
- breast cancer patients showing clinical response (breast cancer): about 50%

SMILES: FCCCN1CC(Nc2ncc(C3=C(CC(F)(F)F)CCCc4c3ccc3[nH]ncc43)cn2)C1 [Compound 4]
- IC50 (CYP3A4): 11100 nM
- IC50 (CYP1A2; human, 10 min): > 50000 nM
- DC50 (ERα): 0.17 nM

SMILES: N#Cc1cc(C2=C(CC(F)(F)F)CCCc3c2ccc2[nH]nc(F)c32)ncc1NC1CN(CCCF)C1 [Compound 10]
- IC50 (CYP3A4): 30800 nM
- IC50 (CYP1A2; human, 10 min): 47500 nM

SMILES: OCCCC1=C(c2ccc(OC3CN(CCCF)C3)cc2)c2ccc3[nH]ncc3c2CCC1 [Formate of 1]
- IC50 (MCF-7 cells): 0.42 nM
- DC50 (ERα): 0.25 nM

SMILES: C#C[C@]1(O)CC[C@H]2[C@@H]3CCc4cc(O)ccc4[C@H]3CC[C@@]21C [Ethinylestradiol, reference compound]
- Inhibition rate (rat uterus): 0%
- Ratio of uterine wet weight/rat body weight (rat uterus): 2.45 mg/g
- Uterine wet weight (rat uterus): 132.2 mg

SMILES: FCCCN1CC(Nc2cnc(C3=C(CC(F)(F)F)CCOc4c3ccc3[nH]ncc43)cn2)C1 [Compound 3]
- IC50 (CYP3A4): 13600 nM
- IC50 (CYP1A2; human, 10 min): > 50000 nM
- IC50 (MCF-7 cells): 1.37 nM
- DC50 (ERα): 0.45 nM

SMILES: FCCCN1CC(Nc2ccc(C3=C(CC(F)(F)F)CCCc4c3ccc3[nH]ncc43)nc2)C1 [Compound 6]
- IC50 (MCF-7 cells): 0.31 nM
- DC50 (ERα): 0.42 nM

SMILES: FCCCN1CC(Nc2cnc(C3=C(CC(F)(F)F)CCCc4c3ccc3[nH]ncc43)nc2)C1 [Compound 7]
- DC50 (ERα): 0.4 nM
